test: On day 0 cells were seeded in 30 μL media into each well of 384-well cell culture plates. The seeding density was 8000 cells/well. On day 1, cells were treated with 30 nL DMSO or 30 nL of 3-fold serially DMSO-diluted compounds (10 points in duplicates with 1 μM as final top dose). Subsequently plates were incubated for 6 hours in a standard tissue culture incubator and equilibrated at room temperature for 15 minutes. Nanoluciferase activity was measured by adding 15 μL of freshly prepared Nano-Glo Luciferase Assay Reagent (Promega N1130), shaking the plates for 10 minutes and reading the bioluminescence using an EnVision reader.; assay type: cell-based

| SMILES | IC50 |
| --- | --- |
| COc1cc(-c2cn(C)c(=O)c3cnccc23)cc(OC)c1CN(C)Cc1cn(CCCOc2ccc3c(c2)C(=O)N(C2CCC(=O)NC2=O)C3=O)nn1 (stereo not drawn) | in the range around 550 nM |
| COc1cc(-c2cn(C)c(=O)c3cnccc23)cc(OC)c1CN(C)CC1CC2(C1)CN(C(=O)CCOCCOc1cccc3c1C(=O)N(C1CCC(=O)NC1=O)C3=O)C2 (stereo not drawn) | in the range around 55 nM |
| COc1cc(-c2cn(C)c(=O)c3cnccc23)cc(OC)c1CN(C)CCCOCCN1CCN(c2ccc3c(c2)C(=O)N(C2CCC(=O)NC2=O)C3=O)CC1 (stereo not drawn) | in the range around 55 nM |
| COc1cc(-c2cn(C)c(=O)c3cnccc23)cc(OC)c1CN1CCC2(CC1)CC(NC(=O)CCOCCOc1ccc3c(c1)C(=O)N(C1CCC(=O)NC1=O)C3=O)C2 (stereo not drawn) | in the range around 55 nM |
| COc1cc(-c2cn(C)c(=O)c3cnccc23)cc(OC)c1CN1CCC2CCN(C(=O)CCOCCOc3cccc4c3C(=O)N(C3CCC(=O)NC3=O)C4=O)CC21 (stereo not drawn) | in the range around 55 nM |
| COc1cc(-c2cn(C)c(=O)c3cnccc23)cc(OC)c1CN(C)Cc1cn(CCOCCOc2ccc3c(c2)C(=O)N(C2CCC(=O)NC2=O)C3=O)nn1 (stereo not drawn) | in the range around 550 nM |
| COc1cc(-c2cn(C)c(=O)c3cnccc23)cc(OC)c1CN1CCC2(CC1)CN(C(=O)CCOCCOc1ccc3c(c1)C(=O)N(C1CCC(=O)NC1=O)C3=O)C2 (stereo not drawn) | in the range around 55 nM |
| COc1cc(-c2cn(C)c(=O)c3cnccc23)cc(OC)c1CN1CC(C(=O)NCCOCCOCCNc2cccc3c2C(=O)N(C2CCC(=O)NC2=O)C3=O)C1 (stereo not drawn) | in the range around 55 nM |
| COc1cc(-c2cn(C)c(=O)c3cnccc23)cc(OC)c1CN1CCC2(C[C@@H]2NC(=O)CCOCCOc2ccc3c(c2)C(=O)N(C2CCC(=O)NC2=O)C3=O)C1 (stereo partly drawn) | in the range around 55 nM |
| COc1cc(-c2cn(C)c(=O)c3cnccc23)cc(OC)c1CN1CCC12CCN(C(=O)CCOCCOc1cccc3c1C(=O)N(C1CCC(=O)NC1=O)C3=O)C2 (stereo not drawn) | in the range around 550 nM |
| COc1cc(-c2cn(C)c(=O)c3cnccc23)cc(OC)c1CN1CC(S(=O)(=O)NCCCCNc2ccc3c(c2)C(=O)N(C2CCC(=O)NC2=O)C3=O)C1 (stereo not drawn) | in the range around 55 nM |
| COc1cc(-c2cn(C)c(=O)c3cnccc23)cc(OC)c1CN1CCN(CCCOc2ccc3c(c2)C(=O)N(C2CCC(=O)NC2=O)C3=O)CC1 (stereo not drawn) | < 10 nM |
| COc1cc(-c2cn(C)c(=O)c3cnccc23)cc(OC)c1CN1CC(OCc2cn(CCCOc3ccc4c(c3)C(=O)N(C3CCC(=O)NC3=O)C4=O)nn2)C1 (stereo not drawn) | in the range around 550 nM |
| COc1cc(-c2cn(C)c(=O)c3cnccc23)cc(OC)c1CN1CCC2(C1)CN(C(=O)CCOCCOc1ccc3c(c1)C(=O)N(C1CCC(=O)NC1=O)C3=O)C2 (stereo not drawn) | in the range around 55 nM |
| COc1cc(-c2cn(C)c(=O)c3cnccc23)cc(OC)c1CN(C)CC12CC(NC(=O)CCOCCOCCNc3cccc4c3C(=O)N(C3CCC(=O)NC3=O)C4=O)(C1)C2 (stereo not drawn) | in the range around 550 nM |
| COc1cc(-c2cn(C)c(=O)c3cnccc23)cc(OC)c1CN1CCC12CN(C(=O)CCOCCOc1ccc3c(c1)C(=O)N(C1CCC(=O)NC1=O)C3=O)C2 (stereo not drawn) | in the range around 550 nM |
| COc1cc(-c2cn(C)c(=O)c3cnccc23)cc(OC)c1CN1CCCC(OCc2cn(CCOCCOc3ccc4c(c3)C(=O)N(C3CCC(=O)NC3=O)C4=O)nn2)C1 (stereo not drawn) | in the range around 55 nM |
| COc1cc(-c2cn(C)c(=O)c3cnccc23)cc(OC)c1CN1CC(OCc2cn(CCOCCOc3ccc4c(c3)C(=O)N(C3CCC(=O)NC3=O)C4=O)nn2)C1 (stereo not drawn) | in the range around 550 nM |
| COc1cc(-c2cn(C)c(=O)c3cnccc23)cc(OC)c1CN(C)CCCN1CCC(Oc2ccc3c(c2)C(=O)N(C2CCC(=O)NC2=O)C3=O)CC1 (stereo not drawn) | < 10 nM |

| SMILES | IC50 |
| --- | --- |
| COc1cc(-c2cn(C)c(=O)c3cnccc23)cc(OC)c1CN1CC(C(=O)N(C)CCCCCNc2cccc3c2C(=O)N(C2CCC(=O)NC2=O)C3=O)C1 (stereo not drawn) | < 10 nM |
| COc1cc(-c2cn(C)c(=O)c3cnccc23)cc(OC)c1CN1CCCC(OCc2cn(CCOc3ccc4c(c3)C(=O)N(C3CCC(=O)NC3=O)C4=O)nn2)C1 (stereo not drawn) | in the range around 55 nM |
| COc1cc(-c2cn(C)c(=O)c3cnccc23)cc(OC)c1CN1CCN(C(=O)CCCCOc2cccc3c2C(=O)N(C2CCC(=O)NC2=O)C3=O)CC1 (stereo not drawn) | < 10 nM |
| COc1cc(-c2cn(C)c(=O)c3cnccc23)cc(OC)c1CN(C)Cc1cn(-c2ccc3c(c2)C(=O)N(C2CCC(=O)NC2=O)C3=O)nn1 (stereo not drawn) | in the range around 550 nM |
| COc1cc(-c2cn(C)c(=O)c3cnccc23)cc(OC)c1CN1CCCC(OCc2cn(-c3ccc4c(c3)C(=O)N(C3CCC(=O)NC3=O)C4=O)nn2)C1 (stereo not drawn) | in the range around 550 nM |
| COc1cc(-c2cn(C)c(=O)c3cnccc23)cc(OC)c1CN(C)CC12CC(C(=O)NCCOCCOCCNc3cccc4c3C(=O)N(C3CCC(=O)NC3=O)C4=O)(C1)C2 (stereo not drawn) | in the range around 550 nM |
| COc1cc(-c2cn(C)c(=O)c3cnccc23)cc(OC)c1CN1CCC(OCc2cn(CCOc3ccc4c(c3)C(=O)N(C3CCC(=O)NC3=O)C4=O)nn2)CC1 (stereo not drawn) | in the range around 55 nM |
| COc1cc(-c2cn(C)c(=O)c3cnccc23)cc(OC)c1CN1CCC2(C[C@H]2NC(=O)CCOCCOc2ccc3c(c2)C(=O)N(C2CCC(=O)NC2=O)C3=O)C1 (stereo partly drawn) | in the range around 550 nM |
| COc1cc(-c2cn(C)c(=O)c3cnccc23)cc(OC)c1CN1CCC(OCc2cn(-c3ccc4c(c3)C(=O)N(C3CCC(=O)NC3=O)C4=O)nn2)C1 (stereo not drawn) | in the range around 55 nM |
| COc1cc(-c2cn(C)c(=O)c3cnccc23)cc(OC)c1CN(C)CCc1cn(CCOc2ccc3c(c2)C(=O)N(C2CCC(=O)NC2=O)C3=O)nn1 (stereo not drawn) | in the range around 55 nM |
| COc1cc(-c2cn(C)c(=O)c3cnccc23)cc(OC)c1CN1CC2(CCN(C(=O)CCOCCOc3ccc4c(c3)C(=O)N(C3CCC(=O)NC3=O)C4=O)C2)C1 (stereo not drawn) | < 10 nM |
| COc1cc(-c2cn(C)c(=O)c3cnccc23)cc(OC)c1CN1CC(CC(=O)NCCCCCCCCNc2cccc3c2C(=O)N(C2CCC(=O)NC2=O)C3=O)C1 (stereo not drawn) | < 10 nM |
| COc1cc(-c2cn(C)c(=O)c3cnccc23)cc(OC)c1CN1CC(C)(C(=O)NCCCCCCCCNc2cccc3c2C(=O)N(C2CCC(=O)NC2=O)C3=O)C1 (stereo not drawn) | < 10 nM |
| COc1cc(-c2cn(C)c(=O)c3cnccc23)cc(OC)c1CN1CCCC(OCc2cn(CCCOc3ccc4c(c3)C(=O)N(C3CCC(=O)NC3=O)C4=O)nn2)C1 (stereo not drawn) | in the range around 55 nM |
| COc1cc(-c2cn(C)c(=O)c3cnccc23)cc(OC)c1CN1CC(C(=O)N2CCC(C3CCN(C(=O)COc4cccc5c4C(=O)N(C4CCC(=O)NC4=O)C5=O)CC3)CC2)C1 (stereo not drawn) | < 10 nM |
| COc1cc(-c2cn(C)c(=O)c3cnccc23)cc(OC)c1CN1CC2(CCN(C(=O)CCOCCOc3cccc4c3C(=O)N(C3CCC(=O)NC3=O)C4=O)CC2)C1 (stereo not drawn) | in the range around 550 nM |
| COc1cc(-c2cn(C)c(=O)c3cnccc23)cc(OC)c1CN1CCC2CCN(C(=O)CCOCCOc3ccc4c(c3)C(=O)N(C3CCC(=O)NC3=O)C4=O)CC21 (stereo not drawn) | < 10 nM |
| COc1cc(-c2cn(C)c(=O)c3cnccc23)cc(OC)c1CN1CCC(OCc2cn(CCCCCOc3ccc4c(c3)C(=O)N(C3CCC(=O)NC3=O)C4=O)nn2)CC1 (stereo not drawn) | < 10 nM |
| COc1cc(-c2cn(C)c(=O)c3cnccc23)cc(OC)c1CN(C)CCc1cn(CCOCCOc2ccc3c(c2)C(=O)N(C2CCC(=O)NC2=O)C3=O)nn1 (stereo not drawn) | in the range around 55 nM |
